According to patent US6440996B1, “Monomeric and dimeric heterocycles, and therapeutic uses thereof” (priority 1998, dated 2002):
Like-named read-outs stand apart in the source and are kept apart here.

What was measured:
[1] = Drug discrimination, substitution for amphetamine; assay type: in vivo; conditions: for response rates across test doses: amphetamine discrimination
[2] = system: rats; test: Intravenous drug self-administration; assay type: in vivo; conditions: for self-administration responding: i.v., FR10, cocaine 1 mg/kg/infusion, analog 2 0.3-3 mg/kg/infusion, analog 3 0.125-0.5 mg/kg infusion, vs saline extinction
Source text: J. Neurosci., 16, 7416-7427.
Rats were initially trained to lever press for food pellets in standard operant boxes. Following lever press training, rats were implanted with polyvinyl chloride catheters into femoral veins under halothane anesthesia (2-3% in medical grade oxygen) and were allowed to recover for an additional 7 days before initiation of i.v. drug self-administration testing. During drug self-administration sessions, food pellets were no longer delivered, and instead intravenous injections of drugs were delivered by way of the catheter.
Following this second extinction test, self-administration of piperidine analog 2 was studied at doses of 1, 3, and 0.3 mg/kg/infusion in that order. Each dose was tested for five days. During all the re-acquisition test days, a priming infusion was given at the start of the session on each day.

[3] = target: T1, dopamine transporter (Rattus norvegicus, UniProt P23977); test: [3H]WIN 35,428 binding to rat striatal membranes / dopamine transporter binding (DAT)
T1 construct: from tissue; P2 synaptosomes for uptake
Protocol: (§1) Determination of inhibitory binding potencies of analogues at dopamine, serotonin, and norepinephrine transporters are carried out using standard receptor binding assays which are known in the art.
A. Dopamine Transporter Binding (DAT)

[4] = target: norepinephrine transporter (Rattus norvegicus, UniProt Q9WTR4); test: Norepinephrine transporter binding (NET)
Protocol: as §1
C. Norepinephrine Transporter Binding (NET)
J. Med Chem., 36, 2886-2890.

[5] = target: T1, dopamine transporter; test: Inhibition of high-affinity [3H]dopamine uptake into rat striatal nerve endings (synaptosomes); assay type: biochemical
Protocol: A. [^3H]Dopamine Uptake Studies
The effect of candidate compounds in antagonizing dopamine high-affinity uptake was determined using a method previously employed. For [^3H]DA uptake, dissected rat striata were homogenized with a Teflon-glass pestle in ice-cold 0.32 M sucrose and centrifuged for 10 min at 1000×g. The supernatant was centrifuged at 17,500×g for 20 min. This P2 synaptosomal pellet was resuspended in 30 volumes of ice-cold modified KRH buffer. An aliquot of the synaptosomal suspension was preincubated with the buffer and drug for 30 min at 37° C., and uptake initiated by the addition of [^3H]dopamine (5 nM, final concentration). After 5 min, uptake was terminated by adding 5 mL of cold buffer containing glucosamine as a substitute for NaCl and then finally by rapid vacuum filtration over GF-C glass fiber filters, followed by washing with two 5 mL volumes of ice-cold, sodium-free buffer. Radioactivity retained on the filters was determined by liquid scintillation spectrometry. […] It is identical to that calculated by subtracting the mean of identical tubes incubated at 0° C.

[6] = system: Sprague-Dawley rats; test: Locomotor activity (distance traveled, stereotypic behavior); assay type: in vivo
[7] = Drug discrimination, substitution for cocaine and co-administration with cocaine; assay type: in vivo
[8] = target: serotonin transporter (Rattus norvegicus, UniProt P31652); test: Serotonin transporter binding (5-HTT)
Protocol: as §1
B. Serotonin Transporter Binding (5-HTT)
Mol. Pharmacol., 39, 339.

[9] = target: striatal dopamine transporter (Macaca mulatta, UniProt Q7JHP9); test: PET evaluation of 11C-labeled isomers
Protocol: The products were purified by HPLC on a C-18 cartridge eluted with MeOH: phosphate/triethylamine buffer, pH 7.2 (60:40).
After passage through a 0.22 μm filter, the sterile products were administered to three Rhesus monkeys and dynamic PET images were acquired over 90 minutes.

[10] = system: dopamine transporter; conditions: cited from earlier work; for protection from the effect of 10 mM N-ethylmaleimide: 10 μM cocaine, 300 μM dopamine, d-amphetamine
[11] = Table 2, read-out: DAT IC50 (nm)

T1 sequence (P23977 whole entry): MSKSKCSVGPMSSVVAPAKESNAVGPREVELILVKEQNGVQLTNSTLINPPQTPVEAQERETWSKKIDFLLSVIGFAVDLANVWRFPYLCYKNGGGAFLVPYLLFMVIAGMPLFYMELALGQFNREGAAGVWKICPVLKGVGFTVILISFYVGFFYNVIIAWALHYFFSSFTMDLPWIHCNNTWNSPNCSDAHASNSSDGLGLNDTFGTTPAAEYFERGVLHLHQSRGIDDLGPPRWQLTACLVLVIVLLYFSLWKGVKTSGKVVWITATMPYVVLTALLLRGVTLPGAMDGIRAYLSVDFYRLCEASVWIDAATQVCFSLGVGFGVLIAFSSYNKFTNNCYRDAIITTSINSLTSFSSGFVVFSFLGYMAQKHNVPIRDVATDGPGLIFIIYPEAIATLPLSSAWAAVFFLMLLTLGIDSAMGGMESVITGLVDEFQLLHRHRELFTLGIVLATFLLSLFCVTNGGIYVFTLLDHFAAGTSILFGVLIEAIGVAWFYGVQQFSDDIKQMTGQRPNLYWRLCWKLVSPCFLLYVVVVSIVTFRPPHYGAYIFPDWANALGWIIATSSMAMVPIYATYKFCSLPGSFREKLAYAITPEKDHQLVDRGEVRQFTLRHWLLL
Chain of norepinephrine transporter (Q9WTR4 1-597): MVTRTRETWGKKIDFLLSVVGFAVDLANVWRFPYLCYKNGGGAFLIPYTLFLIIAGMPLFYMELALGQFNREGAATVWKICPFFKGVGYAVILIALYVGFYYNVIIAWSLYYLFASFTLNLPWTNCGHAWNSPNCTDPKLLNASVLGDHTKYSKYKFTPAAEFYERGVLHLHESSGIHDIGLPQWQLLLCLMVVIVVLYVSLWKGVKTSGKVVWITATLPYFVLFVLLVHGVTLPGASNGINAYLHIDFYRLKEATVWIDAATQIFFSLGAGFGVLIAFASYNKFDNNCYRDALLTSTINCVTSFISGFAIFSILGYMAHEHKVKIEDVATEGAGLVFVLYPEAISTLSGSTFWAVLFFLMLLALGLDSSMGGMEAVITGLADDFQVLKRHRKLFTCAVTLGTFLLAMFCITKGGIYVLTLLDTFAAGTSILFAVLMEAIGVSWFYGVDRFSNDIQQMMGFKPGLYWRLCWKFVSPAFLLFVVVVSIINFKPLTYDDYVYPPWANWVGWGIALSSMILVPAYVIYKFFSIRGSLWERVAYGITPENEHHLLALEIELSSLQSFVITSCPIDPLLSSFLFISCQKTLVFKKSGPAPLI
Chain of serotonin transporter (P31652 whole entry): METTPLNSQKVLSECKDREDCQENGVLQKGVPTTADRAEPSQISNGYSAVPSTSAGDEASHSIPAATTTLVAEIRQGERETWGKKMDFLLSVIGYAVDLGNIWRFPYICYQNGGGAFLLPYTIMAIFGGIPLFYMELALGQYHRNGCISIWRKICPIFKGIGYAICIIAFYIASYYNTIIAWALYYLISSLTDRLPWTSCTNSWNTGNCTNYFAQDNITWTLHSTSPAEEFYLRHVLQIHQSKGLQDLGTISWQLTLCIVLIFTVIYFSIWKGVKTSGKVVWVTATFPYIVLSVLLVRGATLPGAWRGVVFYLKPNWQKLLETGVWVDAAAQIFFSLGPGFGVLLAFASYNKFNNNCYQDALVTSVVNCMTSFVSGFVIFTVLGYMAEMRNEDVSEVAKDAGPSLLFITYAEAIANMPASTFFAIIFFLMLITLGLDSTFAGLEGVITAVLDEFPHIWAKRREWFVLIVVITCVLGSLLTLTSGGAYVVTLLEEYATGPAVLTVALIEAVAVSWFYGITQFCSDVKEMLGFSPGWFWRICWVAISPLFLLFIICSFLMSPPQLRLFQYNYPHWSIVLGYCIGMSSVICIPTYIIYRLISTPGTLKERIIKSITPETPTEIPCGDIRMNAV
Chain of striatal dopamine transporter (Q7JHP9 1-620): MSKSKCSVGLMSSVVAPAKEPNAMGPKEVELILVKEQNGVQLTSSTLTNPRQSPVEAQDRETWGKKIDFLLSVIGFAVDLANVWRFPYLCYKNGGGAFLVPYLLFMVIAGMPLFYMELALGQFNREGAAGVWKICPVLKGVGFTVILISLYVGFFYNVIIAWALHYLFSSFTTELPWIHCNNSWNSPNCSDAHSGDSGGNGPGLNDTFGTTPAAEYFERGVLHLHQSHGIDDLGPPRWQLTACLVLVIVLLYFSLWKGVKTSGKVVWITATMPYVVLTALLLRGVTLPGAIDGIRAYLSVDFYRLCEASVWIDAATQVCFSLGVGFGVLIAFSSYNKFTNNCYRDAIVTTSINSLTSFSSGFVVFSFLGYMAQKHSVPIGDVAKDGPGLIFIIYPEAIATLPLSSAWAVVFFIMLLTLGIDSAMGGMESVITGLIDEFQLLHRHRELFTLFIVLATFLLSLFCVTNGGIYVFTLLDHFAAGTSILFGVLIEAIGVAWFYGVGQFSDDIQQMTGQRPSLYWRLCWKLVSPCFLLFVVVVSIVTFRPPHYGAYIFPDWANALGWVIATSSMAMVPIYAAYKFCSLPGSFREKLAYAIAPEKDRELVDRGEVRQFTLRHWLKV

Compound: CC(N)Cc1ccccc1 (centres unmarked) [amphetamine, reference compound]
- response rates across test doses [1]: remained fairly stable
- substitution for the discriminative stimulus effects of amphetamine ([1]; substitution tests): dose-dependent and complete substitution

Compound: COC(=O)[C@@H]1CN(C)CC[C@@H]1c1ccc(Cl)cc1 [Compound 3, (−)-Methyl 4β-(4-Chlorophenyl)-1-methylpiperidine-3β-carboxylate]
- self-administration responding [2]: reliably self-administered
- IC50 [3, 11]: 25 nM
- IC50 ([3]; rat striatal membranes, Table 1, read-out: IC50 (nM) [3H]WIN 35,428 binding): 24.8 ± 1.6 nM
- IC50 [4]: 1630 nM
- IC50 ([5]; Table 2, unit inferred, read-out: Dopamine Uptake): 85 nM
- IC50 ([5]; rat striatal synaptosomes, Table 1, read-out: IC50 (nM) [3H]dopamine uptake): 85.2 ± 2.6 nM

Compound: COC(=O)[C@@H]1CN(C)CC[C@H]1c1ccc(Cl)cc1 (racemic) [Compound 2, (±)-trans-Methyl 4-(4-Chlorophenyl)-1-methylpiperidine-3-carboxylate]
- number of infusions delivered vs saline extinction test ([2]; analog 2, all doses tested): not significantly different
- self-administration responding [2]: failed to restore
- IC50 ([3]; DAT IC50 (nm), Table 2): 196 nM
- IC50 ([3]; IC50 (nM) [3H]WIN 35,428 binding, rat striatal membranes, Table 1): 197 ± 7.9 nM
- time course of stereotypic response ([6]; 90 minutes following the drug injection): persistent at 90 minutes
- distance traveled ([6]; i.p., cocaine 10 mg/kg, analog 2 3-20 mg/kg, vs saline control): did not alter
- stereotypic behavior / stereotypic time ([6]; i.p., cocaine 10 mg/kg, analog 2 10 and 20 mg/kg): small, statistically nonsignificant increase
- response rates across test doses [1]: remained fairly stable
- maximum amphetamine-lever responding ([1]; substitution tests): 53%
- drug choice and response rate performance on co-administration with cocaine ([7]; analog 2 10 mg/kg plus cocaine 1.25 and 5 mg/kg, vs cocaine alone): did not significantly alter
- response rates compared with cocaine (10 mg/kg) ([7]; analog 2 5 and 10 mg/kg): substantially lower
- maximum cocaine-lever responding ([7]; analog 2 5 and 20 mg/kg): 40%

Compound: COC(=O)[C@@H]1CN(C)CC[C@@H]1c1ccc2ccccc2c1 (racemic) [Compound 74, (±)-Methyl 4β-(2-Naphthyl)-1-methylpiperidine-3β-carboxylate]
- melting point: 100 to 101 °C
- IC50 ([3]; DAT IC50 (nm), Table 2): 13 nM
- IC50 [4]: 2570 nM
- IC50 ([8]; 5-HTT IC50 (nm), Table 2): 107 nM

Compound: COC(=O)C1CN(C)CCC1c1ccc(Cl)cc1 (stereo not drawn) [trans isomers, 4-(4-chlorophenyl)-3-carbomethoxy-N-methylpiperidine]
- striatal activity after unlabeled CFT ([9]; CFT given 60 minutes after injection): selective decrease in the striatal activity

Compound: COC(=O)C1CN(CCCc2ccccc2)CCC1c1ccc(Cl)cc1 (single isomer, unassigned; (-)) [Compound 48, (−)-Methyl 4β-(4-Chlorophenyl)-1-(3-phenylpropyl)-piperidine-3β-carboxylate]
- melting point: 73 to 75 °C
- IC50 ([3]; DAT IC50 (nm), Table 2): 157 nM
- IC50 [4]: 1150 nM
- IC50 [8]: 73200 nM

Compound: COC(=O)C1CN(C)CCC1c1ccc(Br)cc1 (single isomer, unassigned; (+)) [Compound 69, (+)-Methyl 4β-(4-Bromophenyl)-1-methylpiperidine-3β-carboxylate]
- melting point: 125 to 126 °C
- IC50 ([3]; DAT IC50 (nm), Table 2): 406 nM
- IC50 [4]: 21600 nM
- IC50 ([8]; 5-HTT IC50 (nm), Table 2): 4130 nM

Compound: NCCc1ccc(O)c(O)c1 [dopamine]
- protection from the effect of 10 mM N-ethylmaleimide [10]: neither 300 μM dopamine nor d-amphetamine afforded any significant protection

Compound: CCN1C(=O)C=CC1=O [N-Ethyhmaleimide]
- inhibition of the specific binding of [3H]mazindol ([10]; background): about 95%

Compound: COC(=O)C1CN(C)CCC1c1cccc2ccccc12 (racemic) [Compound 73, (±)-Methyl 4β-(1-Naphthyl)-1-methylpiperidine-3β-carboxylate]
- melting point: 108 to 109 °C
- IC50 [3, 11]: 173 nM
- IC50 ([4]; Table 2, read-out: NET IC50 (nm)): 2700 nM
- IC50 ([8]; 5-HTT IC50 (nm), Table 2): 1310 nM

Compound: C[C@H](N)Cc1ccccc1 [d-amphetamine]
- protection from the effect of 10 mM N-ethylmaleimide [10]: neither 300 μM dopamine nor d-amphetamine afforded any significant protection

Compound: COC(=O)C1CN(C)CCC1c1ccc(Cl)cc1 (single isomer, unassigned; isomer 4) [cis isomer, 4-(4-chlorophenyl)-3-carbomethoxy-N-methylpiperidine]
- brain accumulation of 11C-labeled tracer (PET) ([9]; dynamic PET over 90 minutes): greater nonspecific accumulation in the cortex
